Assay results from patent US20220142914A1, “SUSPENSION FORMULATIONS OF HIGH LOAD DISPERSIONS” (Austin Research Labs Corp., priority 2018, published 2022).

Test: Endotoxin (LPS) adsorption capacity and efficiency of sorbents
Assay type: binding
Details: 96,528 ± 9,726 EU used, about 38-39.5 mg sorbent, n=6

Polymycin B, -sulfate [PMB]
Adsorption Capacity (EU/mg) ± SD: 1,746 ± 265 EU/mg
Adsorption Efficiency, E (%) ± SD: 69.66 ± 10.58%
LPS Conc. Post Incubation (EU/ml) ± SD: 760 ± 265 EU/ml
Log10 Reduction ± SD: 0.538 ± 0.142
